Data as given in US20200361871A1 (Enterprise Therapeutics Ltd., priority 2018, published 2020).

Molecular target: human TMEM16A (TMEM16Aabc variant) (Homo sapiens, UniProt Q5XXA6, DEL476-501, form not given)
Test: Automated whole-cell patch clamp (Qpatch) TMEM16A potentiator assay in FRT cells stably expressing human TMEM16A
Assay type: cell-based
Details: for % Potentiation @ 3.33 μM Avg: 3.33 μM solution of test compound, percentage increase of baseline TMEM16A current; for EC50: calculated EC50, Qpatch TMEM16A current at +70 mV
Summary of the method: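 Potentiation was read as the rise in peak +70 mV current over baseline (%), from cumulative 5-min additions of compound. Recordings used whole-cell automated patch of FRT cells stably carrying human TMEM16Aabc, with pipette Ca2+ buffered to give ~20% maximal current. EC50 and efficacy came from concentration-response fits.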

Chain of human TMEM16A (TMEM16Aabc variant) (Q5XXA6 with tags, fused parts or gaps DEL476-501): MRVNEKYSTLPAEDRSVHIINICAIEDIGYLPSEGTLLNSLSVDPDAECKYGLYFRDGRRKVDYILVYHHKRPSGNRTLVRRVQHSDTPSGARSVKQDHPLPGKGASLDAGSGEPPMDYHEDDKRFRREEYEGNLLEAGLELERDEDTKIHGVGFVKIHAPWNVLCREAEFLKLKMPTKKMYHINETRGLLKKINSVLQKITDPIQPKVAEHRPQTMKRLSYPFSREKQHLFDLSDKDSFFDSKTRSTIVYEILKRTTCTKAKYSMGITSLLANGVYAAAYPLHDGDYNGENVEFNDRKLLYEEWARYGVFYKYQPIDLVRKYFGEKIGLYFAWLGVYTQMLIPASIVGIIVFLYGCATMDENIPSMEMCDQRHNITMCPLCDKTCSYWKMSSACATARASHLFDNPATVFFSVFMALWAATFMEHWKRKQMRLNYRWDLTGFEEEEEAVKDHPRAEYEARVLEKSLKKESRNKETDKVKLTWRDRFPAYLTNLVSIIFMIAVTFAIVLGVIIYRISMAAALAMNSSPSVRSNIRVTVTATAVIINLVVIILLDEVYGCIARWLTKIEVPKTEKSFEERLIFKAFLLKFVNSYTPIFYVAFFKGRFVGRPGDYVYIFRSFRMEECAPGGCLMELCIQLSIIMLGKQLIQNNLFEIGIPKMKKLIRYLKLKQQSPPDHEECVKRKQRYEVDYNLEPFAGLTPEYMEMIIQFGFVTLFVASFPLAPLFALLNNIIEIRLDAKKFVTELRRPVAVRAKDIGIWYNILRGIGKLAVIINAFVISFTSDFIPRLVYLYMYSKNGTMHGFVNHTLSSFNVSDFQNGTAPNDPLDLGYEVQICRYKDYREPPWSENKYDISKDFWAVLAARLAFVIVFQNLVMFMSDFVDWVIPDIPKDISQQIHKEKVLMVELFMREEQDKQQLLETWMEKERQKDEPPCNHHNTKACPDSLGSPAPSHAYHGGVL

| SMILES | % Potentiation @ 3.33 μM Avg [%] | EC50 [nM] |
| --- | --- | --- |
| O=C(Cc1cc(F)ccc1F)Nc1ccnc(C(=O)NC23CCC(F)(C2)C3)c1 [Example 77.1, 4-[[2-(2,5-Difluorophenyl)acetyl]amino]-N-(4-fluoro-1-bicyclo[2.1.1]hexanyl) pyridine-2-carboxamide] | 151 | 540 |
| CC(C)(C)NC(=O)c1cc(NC(=O)Cc2ccc(C(C)(C)C)cc2O)ccn1 [Example 90, N-tert-Butyl-4-[[2-(4-tert-butyl-2-hydroxy-phenyl)acetyl]amino]pyridine-2-carboxamide] | 219 | 120 |
| CC(C)(C)NC(=O)c1cccc(NC(=O)Cc2ccccc2)c1 [Example 4.6, N-tert-Butyl-3-[(2-phenylacetyl)amino]benzamide] | 53 | 3860 |
| CC(C)(C)NC(=O)c1cc(NC(=O)Cc2cc(C(C)(C)C)ccc2O)ccn1 [Example 10, N-tert-Butyl-4-[[2-(5-tert-butyl-2-hydroxy-phenyl)acetyl]amino]pyridine-2-carboxamide] | 250 | 220 |
| O=C(Cc1cc(Cl)ccc1O)Nc1ccnc(C(=O)N[C@@]2(CO)CCOC2)c1 (single isomer, unassigned) [Example 35a, 4-[[2-(5-Chloro-2-hydroxy-phenyl)acetyl]amino]-N-[(3R)-3-(hydroxymethyl)tetrahydrofuran-3-yl]pyridine-2-carboxamide or 4-[[2-(5-chloro-2-hydroxy-phenyl)acetyl]amino]-N-[(3S)-3-(hydroxymethyl)tetrahydrofuran-3-yl]pyridine-2-carboxamide] | 137 | 100 |
| O=C(Cc1cc(Cl)ccc1O)Nc1ccnc(C(=O)NCc2cccnc2)c1 [Example 32.2, 4-[[2-(5-Chloro-2-hydroxy-phenyl)acetyl]amino]-N-(3-pyridylmethyl)pyridine-2-carboxamide] | 183 | 340 |
| CC(C)(C)NC(=O)c1cc(NC(=O)C2CCc3ccc(O)cc32)ccn1 (stereo not shown) [Example 3.9b, N-tert-Butyl-4-[(6-hydroxyindane-1-carbonyl)amino]pyridine-2-carboxamide] | 144 | 960 |
| N#CC1(NC(=O)c2cccc(NC(=O)Cc3cc(Cl)ccc3O)c2)CCOCC1 [Example 80, 3-[[2-(5-Chloro-2-hydroxy-phenyl)acetyl]amino]-N-(4-cyanotetrahydropyran-4-yl) benzamide] | 130 | – |
| CC(C)(C)NC(=O)c1cc(NC(=O)Cc2ccc(Cl)c(O)c2)ccn1 [Example 3.14b, N-tert-Butyl-4-[[2-(4-chloro-3-hydroxy-phenyl)acetyl]amino]pyridine-2-carboxamide] | 251 | 40 |
| CC(C)(C)NC(=O)c1cc(NC(=O)NCc2ccccc2Cl)ccn1 [Example 64.5, N-tert-Butyl-4-[(2-chlorophenyl)methylcarbamoylamino]pyridine-2-carboxamide] | 143 | 450 |
| CC(C)(C)NC(=O)c1cc(NC(=O)Cc2cccc(F)c2F)ccn1 [Example 23.8, N-tert-Butyl-4-[[2-(2,3-difluorophenyl)acetyl]amino]pyridine-2-carboxamide] | 122 | – |
| C#CC1(NC(=O)c2cc(NC(=O)Cc3ccccc3Cl)ccn2)CCOCC1 [Example 30.11, 4-[[2-(2-Chlorophenyl)acetyl]amino]-N-(4-ethynyltetrahydropyran-4-yl)pyridine-2-carboxamide] | 125 | 220 |
| CC(C)(C)NC(=O)c1cc(NC(=O)Cc2ccc3nccnc3c2)ccn1 [Example 5.23, N-tert-Butyl-4-[(2-quinoxalin-6-ylacetyl)amino]pyridine-2-carboxamide] | 144 | 1200 |
| N#CC1(NC(=O)c2cc(NC(=O)Cc3cc(F)ccc3Cl)ccn2)CC1 [Example 23.2, 4-[[2-(2-Chloro-5-fluoro-phenyl)acetyl]amino]-N-(1-cyanocyclopropyl)pyridine-2-carboxamide] | 87 | – |
